Drawing on patent US7960561B2, “2-(phenylamino) benzimidazole derivatives and their use as modulators of small-conductance calcium-activated potassium channels” (Neurosearch A/S, priority 2005, dated 2011), this text covers melting point for 26 compounds.

Molecules are shown by their SMILES. Structures can show the parent of a compound that is named as a salt.

For orientation: melting point means the temperature, or range, at which the solid turns liquid. Take `Clc1ccc(Nc2nc3ccccc3[nH]2)cc1` (as salt: hydrochloride) [Example 1, N-(Benzimidazol-2-yl)-4-chloroaniline]: the melting point was in the range of 238 to 240 °C.
For `FC(F)(F)c1cc(Nc2nc3ccccc3[nH]2)ccc1Cl` (as salt: hydrochloride) [Example 2, N-(Benzimidazol-2-yl)-4-chloro-3-(trifluoromethyl)aniline] the value was 255 to 260 °C; for `Clc1ccc(Nc2nc3ccccc3[nH]2)cc1Cl` (as salt: hydrochloride) [Example 3, N-(Benzimidazol-2-yl)-3,4-dichloroaniline], more than 270 °C.
Consider `Clc1cccc(Nc2nc3ccccc3[nH]2)c1` (as salt: hydrochloride) [Example 5, N-(Benzimidazol-2-yl)-3-chloroaniline], for which the melting point lay within 252 to 257 °C.
In turn, `FC(F)(F)Oc1ccc(Nc2nc3ccccc3[nH]2)cc1` (as salt: hydrochloride) [Example 6, N-(Benzimidazol-2-yl)-4-(trifluoromethoxy)aniline] came in with a melting point of 250 to 251 °C.
As for `Fc1ccc(Nc2nc3ccccc3[nH]2)cc1` (as salt: hydrochloride) [Example 7, N-(Benzimidazol-2-yl)-4-fluoroaniline], the figure is 215 to 216 °C.
As for `Fc1ccc(Nc2nc3ccccc3[nH]2)cc1F` (as salt: hydrochloride) [Example 8, N-(Benzimidazol-2-yl)-3,4-difluoroaniline], the figure is 283 to 284 °C.
Compound `Fc1cc(F)cc(Nc2nc3ccccc3[nH]2)c1` (as salt: hydrochloride) [Example 9, N-(Benzimidazol-2-yl)-3,5-difluoroaniline] yielded a melting point of 292 to 293 °C.
As for `Fc1ccc(Nc2nc3ccccc3[nH]2)cc1C(F)(F)F` (as salt: hydrochloride) [Example 11, N-(Benzimidazol-2-yl)-4-fluoro-3-(trifluoromethyl)aniline], the figure is 255 to 257 °C.
In the case of `Cc1cc(Nc2nc3ccccc3[nH]2)ccc1F` (as salt: hydrochloride) [Example 12, N-(Benzimidazol-2-yl)-4-fluoro-3-methylaniline], the melting point was 246 to 248 °C.
In the case of `FC(F)(F)c1cc(Nc2nc3ccccc3[nH]2)cc(C(F)(F)F)c1` (as salt: hydrochloride) [Example 13, N-(Benzimidazol-2-yl)-3,5-bis(trifluoromethyl)aniline], the melting point was 245 to 246 °C.
`Fc1ccc(Nc2nc3ccccc3[nH]2)cc1Cl` (as salt: hydrochloride) [Example 14, N-(Benzimidazol-2-yl)-3-chloro-4-fluoroaniline] had a melting point of 306 to 307 °C.
Compound `Clc1cc(Cl)cc(Nc2nc3ccccc3[nH]2)c1` (as salt: hydrochloride) [Example 15, N-(Benzimidazol-2-yl)-3,5-dichloroaniline] showed a melting point of 317 to 318 °C.
As for `FC(F)(F)c1cc(Nc2nc3ccccc3[nH]2)ccc1Br` (as salt: hydrochloride) [Example 16, N-(Benzimidazol-2-yl)-4-bromo-3-(trifluoromethyl)aniline], the figure is 262 to 264 °C; as for `Cc1ccc(Nc2nc3ccccc3[nH]2)cc1C(F)(F)F` (as salt: hydrochloride) [Example 17, N-(Benzimidazol-2-yl)-4-methyl-3-(trifluoromethyl)aniline], more than 265 °C; as for `Fc1cc(Nc2nc3ccccc3[nH]2)cc(C(F)(F)F)c1` (as salt: hydrochloride) [Example 18, N-(Benzimidazol-2-yl)-3-fluoro-5-(trifluoromethyl)aniline], 263 to 265 °C.
In turn, `CN(c1ccc(Cl)c(Cl)c1)c1nc2ccccc2[nH]1` (as salt: hydrochloride) [Example 22, N-(Benzoimidazol-2-yl)-N-methyl-3,4-dichloroaniline] came in with a melting point of more than 275 °C.
`COc1cc(Nc2nc3ccccc3[nH]2)cc(C(F)(F)F)c1` (as salt: hydrochloride) [Example 24, N-(Benzoimidazol-2-yl)-3-methoxy-5-(trifluoromethyl)aniline] yielded a melting point of 212 to 213 °C.
Take `FC(F)(F)c1ccc(Nc2nc3ccccc3[nH]2)cc1` [Example 4, N-(Benzimidazol-2-yl)-4-(trifluoromethyl)aniline]: the melting point was 199 to 200 °C.
With `FC(F)(F)c1cccc(Nc2nc3ccccc3[nH]2)c1` [Example 10, N-(Benzimidazol-2-yl)-3-(trifluoromethyl)aniline], the melting point lay in the range of 160 to 162 °C.
As for `Cc1c(Nc2nc3ccccc3[nH]2)cccc1C(F)(F)F` [Example 19, N-(Benzimidazol-2-yl)-2-methyl-3-(trifluoromethyl)aniline], the melting point was in the range of 204 to 206 °C.
For `Fc1c(Nc2nc3ccccc3[nH]2)cccc1C(F)(F)F` [Example 20, N-(Benzimidazol-2-yl)-2-fluoro-3-(trifluoromethyl)aniline] the value was 91 to 92 °C; for `Fc1ccc(Nc2nc3ccccc3[nH]2)c(F)c1F` [Example 21, N-(Benzimidazol-2-yl)-2,3,4-trifluoroaniline], 182 to 183 °C; for `N#Cc1cccc(Nc2nc3ccccc3[nH]2)c1` [Example 23, N-(Benzoimidazol-2-yl)-3-cyanoaniline], 272 to 274 °C.
In turn, `CC(C)c1ccc(Nc2nc3ccccc3[nH]2)cc1` [Example 25, N-(Benzoimidazol-2-yl)-4-isopropylaniline] displayed a melting point of 179 to 180 °C.
Consider `c1ccc(-c2ccccc2Nc2nc3ccccc3[nH]2)cc1` [Example 28, N-(Benzoimidazol-2-yl)-2-phenylaniline], for which the melting point was in the range of 152 to 154 °C.
